Consider six molecules from US4698341A, “Use of 1,6-naphthyridinone derivatives in treating pulmonary thrombosis” (Godecke Aktiengesellschaft, priority 1983, dated 1987).

The test system of assay [1] is Collagen-induced thrombocyte aggregation (platelet-rich plasma). Kind of assay: Collagen-induced thrombocyte aggregation in vitro (rat). The class given is cell-based, rat (male Sprague Dawley SIV 50). The following applies: read-out: IC50 value, collagen-induced thrombocyte aggregation. On the procedure:
(§1) Collagen or ADP-induced thrombocyte aggregation in vitro (rat)
(§2) The test was carried out according to the method of BORN (Nature 194, 927-929, 1962). […] Blood was withdrawn from the postorbital venous plexus under ether anesthesia. Nine aliquots of blood were mixed with one aliquot of 3.8% (w/v) tri-Na-citrate solution. After low speed centrifugation of the mixture at room temperature, the platelet-rich plasma (PRP corresponding to the erythrocyte-frree supernatant) was removed and adjusted to a standard concentration of 400 000/μl. A universal aggregometer (Braun, Melsungen) connected with an Eppendorf photometer 1100M (Netheler and Hinz, Hamburg) was used as a measuring instrument. In this test portions of 700 μl of platelet-rich plasma (PRP) were equilibrated in the aggregometer at 37° C. for five minutes and then mixed with 58 μl of the test substance solution or with a 0.9% NaCl solution (corresponding to the blank value). After an incubation time of three minutes, the addition of 35 μl collagen suspension (collagen reagent HORM(®), Hormon Chemie, Munich) or 20 μl ADP solution (end concentration in the test 1×10^-5 mol/liter) causes aggregation. A compensation recorder recorded the change in transmission during the following 15 minutes.
(§3) The largest change in transmission occurring in this period was called amplitude (amp) of the aggregation curve. Aggregation-inhibiting substances produce a decrease of this amplitude; the inhibitory effect (E) of a substance is calculated according to the following formula:
(§4) E=(Ampbank value -AMPtest substance)/Ampblank value
(§5) Dose-effect curves were drawn for calculating the IC50 values.

The subject of assay [2] is ADP-induced thrombocyte aggregation (platelet-rich plasma). Briefly: ADP-induced thrombocyte aggregation in vitro (rat). The class given is cell-based, rat (male Sprague Dawley SIV 50). As to conditions: read-out: IC50 value, ADP-induced thrombocyte aggregation. The method, then: as §1, §2, §3, §4, §5
Another assay has as its system tenia coli (guinea pig). Briefly: Ca2+ effect on the smooth muscles, tenia coli, inhibition of contraction amplitude. Type of assay: cell-based. As to conditions: Cavia porcellus, 10 min, 32° C.; for inhibition: 3·10^-5 mol/l. The method, then:
1. Ca^2+ effect on the smooth muscles
Approximately 10 mm long, freshly isolated pieces of the tenia coli (guinea pig) were encircled at both ends with threads and connected with a mechanico-technical transducer in the organ bath (32° C., bubbled through with carbogen). Five to ten mN (0.5-1 p) were selected as mechanical pretension. […] This solution was exchanged for K+-rich and Ca++-free solution (40 mmol/l) KCl for depolarization of the cell membrane, the NaCl concentration being decreased correspondingly. One mmol/l CaCl2 was added to the nutrient solution under equilibrium conditions, resulting in a contraction of the muscle preparation. After reaching the new equilibration the test substance was added to the organ bath.
The percentage inhibition of the contraction amplitude after a ten-minute time of action of the test substance, related to the amplitude prior to administration of the substance, was calculated as substance effect. Each substance was tested in two preparations.

Assay [3] deals with left atrium of guinea pig. Briefly: Isolated left atrium of guinea pigs, inhibition of contraction amplitude. As to conditions: Cavia porcellus; approximate values from four atriums, 35° C., 100 imp/min. The class given is cell-based. On the procedure: 2. Isolated atriums of guinea pigs
In a thermostated (35° C.) dissecting dish containing modified nutrient solution acc. to Krebs-Henseleit the left atrium was cautiously separated from the ventricle myocardium by means of scissors and a needle with thread passed through the apex of the atrium and knotted. Subsequently, the basis of the atrium was fastened to the hook of a preparation holder and transferred to a thermostated organ bath containing nutrient solution (25 ml, 35° C.). In the organ bath the thread at the apex of the atrium was attached to a mechanicoelectric transducer. Electrical stimulation was effected supramaximally with a frequency of 100 imp/min (stimulation range 2.5 msec). The hook of the preparation holder represented an electrode, whereas the second electrode was designed as field electrode in the preparation holder parallel to the tensioned atrium.
The substances were cumulatively added to the organ bath at intervals of four minutes.

[4] abbreviates: rat PRP 400 000/μl, 37° C., collagen, Arith. M±S.D.
Where [5] appears, read: rat PRP 400 000/μl, 37° C., ADP 1×10^-5 mol/liter, Arith. M±S.D.

As usually defined, the IC50 is the concentration that inhibits the measured activity by half. The term inhibition denotes the relative decrease from the control value, in per cent.

Read-outs that look alike come from different tables or passages of the source.

As for `CCOC(=O)C1=C(C)Nc2ccn(CCCN3CCCCC3)c(=O)c2C1c1cccc([N+](=O)[O-])c1` (stereo not drawn) [Example 4 f., 1,4,5,6-Tetrahydro-2-methyl-4-(3-nitrophenyl)-5-oxo-6-(3-piperidinopropyl)-1,6-naphthyridine-3-carboxylic acid ethyl ester], the IC50 in assay [1] (setting [4]) is 70 ± 10 µM; in assay [2] (setting [5]), 240 ± 10 µM; in assay [3], 100 µM. The molecule further came in with an inhibition in the assay on tenia coli (guinea pig) of 79 ± 3%.
In the same order, the values of `CCOC(=O)C1=C(C)Nc2ccn(CCCN3CCCCC3)c(=O)c2C1c1ccccc1Cl` (stereo not drawn) [Example 4 e., 1,4,5,6-Tetrahydro-4-(2-chlorophenyl)-2-methyl-5-oxo-6-(3-piperidinopropyl)-1,6-naphthyridine-3-carboxylic acid ethyl ester.1/2 ethyl acetate] are 160 ± 20 µM, 330 ± 20 µM, 100 µM and 81 ± 5%.
As for `CCOC(=O)C1=C(C)Nc2ccn(CCCN(C)C)c(=O)c2C1c1cccc(Cl)c1` (stereo not drawn) [Example 4 b., 1,4,5,6-Tetrahydro-4-(3-chlorophenyl)-6-(3-dimethylaminopropyl)-2-methyl-5-oxo-1,6-naphthyridine-3-carboxylic acid ethyl ester], the IC50 in assay [1] (setting [4]) is 160 ± 10 µM; in assay [2] (setting [5]), 410 ± 50 µM; in assay [3], 300 µM. In the assay on tenia coli (guinea pig), this molecule came in with an inhibition of 57 ± 7%.
For `CCOC(=O)C1=C(C)Nc2ccn(CCCN(C)C)c(=O)c2C1c1cccc([N+](=O)[O-])c1` (stereo not drawn) [Example 2, 1,4,5,6-Tetrahydro-6-(3-dimethylaminopropyl)-2-methyl-4-(3-nitrophenyl)-5-oxo-1,6-naphthyridine-3-carboxylic acid ethyl ester] the same measures were 160 ± 10 µM, 510 ± 40 µM, 300 µM and 88 ± 12%.
With `COc1ccc(CCN(C)CCCC(C#N)(c2ccc(OC)c(OC)c2)C(C)C)cc1OC` (stereo not drawn) [Verapamil, reference compound], the results for the 50% inhibitory concentration (IC50) in assay [1] (Rattus norvegicus), in assay [2] (Rattus norvegicus) and in assay [3] were 210 ± 20 µM, 560 ± 60 µM and 2 µM, respectively. In addition, in the assay on tenia coli (guinea pig) (10^-6 mol/l), at 1 µM the inhibition was 100%.
Regarding `CCOC(=O)C1=C(C)Nc2ccn(CCCN3CCCCC3)c(=O)c2C1c1cccc(Cl)c1` (stereo not drawn) [Example 4 c., 1,4,5,6-Tetrahydro-4-(3-chlorophenyl)-2-methyl-5-oxo-6-(3-piperidinopropyl)-1,6-naphthyridine-3-carboxylic acid ethyl ester], the values for the IC50 in assay [1] (setting [4]), in assay [2] (setting [5]) and in assay [3] were 60 ± 10 µM, 180 ± 10 µM and 300 µM, respectively. In the assay with tenia coli (guinea pig), this molecule showed an inhibition of 44 ± 6%.
